Assay results taken from patent publication US7745401B2, “Antifungal peptides and methods of use thereof” (The Board of Regents of the University of Oklahoma, priority 2005, dated 2010).
“Also recorded” adds a separate entry of the source. Where no end group is shown, it is not given here.

Assays:
S. cerevisiae = assay: FUN-1 vital dye yeast viability, confocal microscopy, S. cerevisiae; type: cell-based, Saccharomyces cerevisiae; settings: 400 μg/ml, 37° C. for 2 hr
Protocol: (§1) Yeast viability was also assessed using the FUN-1 Live/Dead Yeast Viability Kit (Molecular Probes, Eugene, Oreg.). The methodology employed was essentially according to the protocol provided by the vendor for use with fluorescent microscopy. Briefly, yeast cultures were prepared exactly as stated above. C. glabrata, C. pseudotropicalis, C. albicans (fluconazole sensitive isolate) and S. cerevisiae (5×10^5 cfu in 100 μl of tryptone saline) were incubated (37° C. for 2 hr) in the absence or presence of peptide (CAP37(20-44)nat and CAP37(20-44)ser26/42) at a final concentration of 400 μg/ml. At the end of the incubation period, the samples were transferred to microcentrifuge tubes and centrifuged (10,000×g for 3 min at room temperature). The supernatant was removed and the pellet resuspended in 25 μl of GH solution (2% D-glucose containing 10 mM Na-HEPES, pH 7.2) as described in the technical data sheet provided by the vendor. A working solution of the FUN-1 reagent (100 μl of 10 μM) was prepared from 10 mM stock solution and 25 μl (final concentration 5 μM) added to the yeast and incubated at room temperature for 30 min. A sample (10 μl) was placed on a microscope slide and staining observed under a Leica TCS NT confocal microscope using Ar-488 and Kr-568 Lasers and 63x Plan APO 1.2 NA water immersion objective. Images were scanned and analyzed using the Leica TCS software.

[1] = tested on: C. albicans (fluconazole sensitive isolate); assay: FUN-1 vital dye yeast viability, confocal microscopy, C. albicans; type: cell-based, Candida albicans; settings: 400 μg/ml, 37° C. for 2 hr
Protocol: as §1

C. parapsilosis = assay: In vitro candidacidal assay, C. parapsilosis; type: cell-based; settings: 100 μg/ml (37.5 μM)
Protocol: (§2) Isolates used in this study included Candida albicans (ATCC 28367), three fluconazole sensitive mucosal isolates of C. albicans, designated A-22, A-111 and A-155, three fluconazole resistant mucosal isolates of C. albicans designated A-46, A-5, and A-20, and a blood isolate of C. albicans designated WDO. Isolates were stored frozen at −70° C. and streaked onto Sabouraud Dextrose Agar (Sigma, St. Louis, Mo.) plates and maintained on plates at 4° C., with subculturing onto new plates approximately every 10 days for the duration of the studies. Fluconazole resistance was evaluated. […]
(§3) Stock solutions of all peptides were made up at concentrations of 1 mg/ml in sterile endotoxin-free water for irrigation (Baxter, Deerfield, Ill.). […] The optical density was read and the culture adjusted to 500 blastospores/100 μl in tryptone saline pH 5.5 (Shafer et al., Infect Immun, 1984). […] The colony forming units (cfu) were counted and the fungicidal activity was expressed as percent killed and calculated according to the following equation: [(control cfu−test cfu)/control cfu]×100=% killed. […] Test cfu is determined by counting the number of colonies present after incubation in tryptone saline containing the peptide. […]

C. pseudotropicalis = assay: In vitro candidacidal assay, C. pseudotropicalis; type: cell-based; settings: 400 μg/ml (150 μM)
Protocol: as §2, §3

[2] = tested on: Salmonella typhimurium, Escherichia coli, and Pseudomonas aeruginosa; settings: Gram negative organisms; cited from earlier work
C. guilliermondii = assay: In vitro candidacidal assay, C. guilliermondii; type: cell-based; settings: 100 μg/ml (37.5 μM)
Protocol: as §2, §3

C. glabrata [3] = assay: FUN-1 vital dye yeast viability, confocal microscopy, C. glabrata; type: cell-based; settings: 400 μg/ml, 37° C. for 2 hr
Protocol: as §1

Candida albicans = type: cell-based; settings: for activity against C. albicans: in vitro killing efficacy; for activity against fluconazole resistant isolates: isolates A-5 and A-20; for activity against fluconazole sensitive isolates: isolates A-155, A-22 and A-111, 400 μg/ml; for killing of blood isolate of Candida: blood isolate of C. albicans, 400 μg/ml (150 μM); for peptide concentration required for activity: fluconazole resistant isolate A-46; for activity at the lower concentration: fluconazole resistant isolates A-5 and A-20, 200 μg/ml or 75 μM; for fungicidal or fungistatic effect: isolates A-5, A-20, A-46 and A-155, viable colony counts versus starting inoculum
Protocol: (§4) Isolates used in this study included Candida albicans (ATCC 28367), three fluconazole sensitive mucosal isolates of C. albicans, designated A-22, A-111 and A-155, three fluconazole resistant mucosal isolates of C. albicans designated A-46, A-5, and A-20, and a blood isolate of C. albicans designated WDO. Isolates were stored frozen at −70° C. and streaked onto Sabouraud Dextrose Agar (Sigma, St. Louis, Mo.) plates and maintained on plates at 4° C., with subculturing onto new plates approximately every 10 days for the duration of the studies. Fluconazole resistance was evaluated. Three clinical isolates of C. glabrata, two clinical isolates of C. dubliniensis, and single isolate each of C. krusei, C. guilliermondii, C. parapsilosis, C. pseudotropicalis and C. tropicalis and two isolates of Saccharomyces cerevisiae were also used in this study and were maintained on Sabouraud Dextrose agar plates at 4° C. A single yeast colony was cultured overnight at 33° C. in 1% phytone peptone broth (Becton Dickinson, Sparks Md.) with 0.1% D-glucose (Sigma).
Stock solutions of all peptides were made up at concentrations of 1 mg/ml in sterile endotoxin-free water for irrigation (Baxter, Deerfield, Ill.). Subsequent dilutions were all made in tryptone saline pH 5.5 (Shafer et al., Infect Immun, 1984). An aliquot (100 μl) of an overnight culture of a single colony grown at 33° C. in 1% phytone peptone broth with 0.1% glucose was subcultured in 5 ml of 1% phytone peptone broth with 0.1% glucose and incubated in a shaking water bath (80 oscillations per min, Precision, Winchester, Va.) for 90 min at 33° C. to yield a logarithmic culture. […] The optical density was read and the culture adjusted to 500 blastospores/100 μl in tryptone saline pH 5.5 (Shafer et al., Infect Immun, 1984). To 100 μl of the organism suspension in a 96 well sterile polystyrene microtiter plate (Becton Dickinson, Franklin Lakes, N.J.) was added 100 μl of the peptide (final concentrations 400 μg/ml and 200 μg/ml) or 100 μl of tryptone saline. The latter served as a control. The microtiter plate was incubated at 37° C. for 4 hr and 100 μl of the contents from each well was plated on Sabouraud Dextrose agar plates and incubated at 37° C. overnight. The colony forming units (cfu) were counted and the fungicidal activity was expressed as percent killed and calculated according to the following equation: [(control cfu−test cfu)/control cfu]×100=% killed. Control cfu is indicated by the number of colonies present after […] of incubation in tryptone saline alone in the absence of peptide. Test cfu is determined by counting the number of colonies present after incubation in tryptone saline containing the peptide. Each experimental point was performed in triplicate.
C. albicans (ATCC 28367) was used to standardize the in vitro killing assay. We explored the optimal growth conditions (temperature and time, 25° C. for 5 h and 33° C. for 90 min), numbers of blastospores per well (200, 400, 500, 600, 800, and 1000 cfu), range of peptide concentrations (750, 500, 400, 200 and 100 μg/ml) and the contact time between peptide and Candida (1, 2 and 4 hr) for killing to occur. […] The 90 minute incubation was more convenient technically and was therefore employed routinely. The optimum numbers of cfu per well was determined to be 500 and an incubation time of 4 hr at 37° C. between Candida and peptide was required to obtain optimal killing.

C. dubliniensis = assay: In vitro candidacidal assay, C. dubliniensis; type: cell-based; settings: two isolates; 400 μg/ml (150 μM)
Protocol: as §4
as §3, with “Ill.). Subsequent dilutions were all made in tryptone saline pH 5.5 (Shafer et al., Infect Immun, 1984).” for “Ill.).”

[4] = tested on: hyphal forms of Candida albicans; assay: In vitro candidacidal assay on hyphal forms of C. albicans; type: cell-based; settings: clinical isolates; 400 and 200 μg/ml
Protocol: To induce hyphal formation a single colony of C. albicans isolates A-5, A-20, A-22, A-46, A-11 and A-155 from a Sabouraud Dextrose agar plate was transferred to 1% phytone peptone broth with 0.1 glucose and grown overnight at 33° C. An aliquot (500 μl) of the overnight culture was subcultured in 5 ml of RPMI-1640 (Celigro Mediatech Inc, Herndon, Va.)) with 10% fetal calf serum (Invitrogen, Grand Island, N.Y.) for 90 min at 37° C. Hyphal formation was determined under phase microscopy.
as §3, with “Ill.). Subsequent dilutions were all made in tryptone saline pH 5.5 (Shafer et al., Infect Immun, 1984).” for “Ill.).”

C. tropicalis = assay: In vitro candidacidal assay, C. tropicalis; type: cell-based; settings: 400 μg/ml (150 μM)
Protocol: as §4
as §3, with “Ill.). Subsequent dilutions were all made in tryptone saline pH 5.5 (Shafer et al., Infect Immun, 1984).” for “Ill.).”

C. glabrata [5] = assay: In vitro candidacidal assay, C. glabrata; type: cell-based; settings: one isolate of three; 400 μg/ml (150 μM)
Protocol: as §4
as §3, with “Ill.). Subsequent dilutions were all made in tryptone saline pH 5.5 (Shafer et al., Infect Immun, 1984).” for “Ill.).”

Candida = settings: peptides isolated from human platelets; cited from earlier work

| Molecule | bactericidal activity [2] | activity against C. albicans (Candida albicans) | activity against fluconazole resistant isolates (Candida albicans) | activity against fluconazole sensitive isolates (Candida albicans) | activity against C. dubliniensis (C. dubliniensis) | activity against C. tropicalis (C. tropicalis) | killing (Candida albicans) [%] | killing of blood isolate of Candida (Candida albicans) | peptide concentration required for activity (Candida albicans) [µg/mL] | activity at the lower concentration (Candida albicans) | fungicidal or fungistatic effect (Candida albicans) | activity against C. glabrata (C. glabrata [5]) | candidacidal activity (Candida) | other results |
| --- | --- | --- | --- | --- | --- | --- | --- | --- | --- | --- | --- | --- | --- | --- |
| NQGRHFSGGALIHARFVMTAASSFQ (NQGRHFSGGALIHARFVMTAASSFQ; listed as Homo sapiens) [CAP37(20-44)ser26/42, cysteines at positions 26 and 42 replaced by serine] | inactive compound | significantly abrogated activity | moderately active | lack of activity |  |  |  |  |  |  |  |  |  | cell viability (S. cerevisiae): virtually all cells were viable; blastoconidia alive [1]: 30%; activity against C. parapsilosis (C. parapsilosis): some activity; activity against C. pseudotropicalis (C. pseudotropicalis): some activity; activity against C. guilliermondii (C. guilliermondii): some activity; cell viability (C. glabrata [3]): virtually all cells were viable |
| NQGRHFCGGALIHARFVMTAASSFQ [CAP37(20-44)ser42, NQGRHFCGGALIHARFVMTAASSFQ] |  | significant activity | highly active | strongly active | more effective against C. dubliniensis than CAP37(20-44)nat; also recorded: effective against both isolates of C. dubliniensis and one isolate of C. glabrata, although to a lesser extent | killed | > 75 | killed | 400 | significant activity | fungicidal rather than fungistatic | effective against both isolates of C. dubliniensis and one isolate of C. glabrata, although to a lesser extent |  | activity on hyphal forms of C. albicans [4]: greater activity |
| NQGRHFSGGALIHARFVMTAASCFQ [CAP37(20-44)ser26, NQGRHFSGGALIHARFVMTAASCFQ] |  | significant activity | highly active | strongly active | effective against both isolates of C. dubliniensis and one isolate of C. glabrata, although to a lesser extent | killed | > 75 | killed | 400 | significant activity | fungicidal rather than fungistatic | effective against both isolates of C. dubliniensis and one isolate of C. glabrata, although to a lesser extent |  |  |
| PF-4: platelet factor-4, isolated from human platelets (protein, UniProt P02776 32-101, looked up) Platelet factor 4: EAEEDGDLQCLCVKTTSQVRPRHITSLEVIKAGPHCPTAQLIATLKNGRKICLDLQAPLYKKIIKKLLES |  |  |  |  |  |  |  |  |  |  |  |  | exhibited candidacidal activity |  |
| CAP37: cationic antimicrobial protein of Mr 37 kDa of the human neutrophil (protein) IVGGRKARPRQFPFLASIQNQGRHFCGGALIHARFVMTAASCFQSQNPGVSTVVLGAYDLRRRERQSRQTFSISSMSENGYDPQQNLNDLMLLQLDREANLTSSVTILPLPLQNATVEAGTRCQVAGWGSQRSGGRLSRFPRFVNVTVTPEDQCRPNNVCTGVLTRRGGICNGDGGTPLVCEGLAHGVASFSLGPCGRGPDFFTRVALFRDWIDGVLNNPGP | strong bactericidal activity |  |  |  |  |  |  |  |  |  |  |  |  |  |
| RANTES: Regulated upon Activation Normal T cell Expressed and Secreted protein, isolated from human platelets (protein, UniProt P13501 24-91, looked up) C-C motif chemokine 5: SPYSSDTTPCCFAYIARPLPRAHIKEYFYTSGKCSNPAVVFVTRKNRQVCANPEKKWVREYINSLEMS |  |  |  |  |  |  |  |  |  |  |  |  | exhibited candidacidal activity |  |
